Patent US10730848B2 (priority 2013, dated 2020)
Read-outs that look alike come from different tables or passages of the source.

Test system: anthrax lethal toxin (LT)
Assay: cells
Type: cell-based, murine
[1] = Mus musculus, RAW264.7, read-out: IC50 (In uM)
[2] = Mus musculus, RAW264.7, read-out: IC50, inhibition of LT-induced cell death

Structure (SMILES)	protection of cells from LT (in words)	IC50 (Mus musculus, RAW264.7)	IC50 [1]	IC50 [2]	fold less active than 1	IC50
Cc1cccc(C)c1NC(=O)N/N=C/c1ccc(Br)cc1F [Compound 2, N^1-(4-BROMO-2-FLUOROBENZYLIDENE)-N^4-(2,6-DIMETHYLPHENYL)SEMICARBAZONE]	mid-nanomolar levels	0.4 µM	0.4 µM	0.4 µM	–	–
Cc1cccc(C)c1NC(=O)NN [Compound 6, N-(2,6-DIMETHYLPHENYL) SEMICARBAZIDE]	did not prevent toxin-induced cell death	–	–	–	–	–
Cc1ccc(NC(=O)N/N=C/c2ccc(Br)cc2)c(C)c1 [Compound 9a, N^1-(4-BROMOBENZYLIDENE)-N^4-(2,4-DIMETHYLPHENYL)SEMICARBAZONE]	not protective	> 25 µM	–	–	–	–
Cc1cc(C)c(NC(=O)N/N=C/c2ccc(Br)cc2)c(C)c1 [Compound 9b, N^1-(4-BROMOBENZYLIDENE)-N^4-(2,4,6-DIMETHYLPHENYL)SEMICARBAZONE]	–	12.6 µM	12.6 µM	–	approximately 10 fold	–
CCc1cccc(CC)c1NC(=O)N/N=C/c1ccc(Br)cc1 [Compound 9c, N^1-(4-BROMOBENZYLIDENE)-N^4-(2,6-DIETHYLPHENYL)SEMICARBAZONE]	–	16.7 µM	> 12.5 µM	> 12.5 µM	–	> 12.5 µM
CC(C)(C)NC(=O)N/N=C/c1ccc(Br)cc1 [Compound 10, N^1-(4-BROMOBENZYLIDENE)-N^4-(TERT-BUTYL)SEMICARBAZONE]	not protective	> 25 µM	–	–	–	–
O=C(N/N=C/c1ccc(Cl)cc1)Nc1ccccc1 [Compound 11, N^1-(4-Cl-benzylidene)-N^4-phenylsemicarbazone, reference compound]	not protective	> 25 µM	–	–	–	–
Cc1cccc(C)c1NC(=O)NN=Cc1ccccc1 [Compound 12, benzaldehyde N-(2,6-dimethylphenyl)semicarbazone, reference compound]	showed almost no activity against LT	> 25 µM	–	–	–	–
Cc1cccc(C)c1NC(=O)N/N=C/c1ccc(Cl)cc1 [Compound 13a, N^1-(4-CHLOROBENZYLIDENE)-N^4-(2,6-DIMETHYLPHENYL)SEMICARBAZONE]	–	1.65 µM	1.65 µM	–	–	1.7 ± 0.2 µM
Cc1cccc(C)c1NC(=O)N/N=C/c1ccc(Br)c(F)c1 [Compound 13aa, N^1-(4-BROMO-3-FLUOROBENZYLIDENE)-N^4-(2,6-DIMETHYLPHENYL)SEMICARBAZONE]	–	1.5 µM	–	–	–	–
Cc1cccc(C)c1NC(=O)N/N=C/c1ccc(Br)c(Cl)c1 [Compound 13ab, N^1-(4-BROMO-3-CHLOROBENZYLIDENE)-N^4-(2,6-DIMETHYLPHENYL)SEMICARBAZONE]	–	3.4 µM	–	–	–	–
Cc1cccc(C)c1NC(=O)N/N=C/c1cccc(C(F)(F)F)c1Cl [Compound 13b, N^1-(2-CHLORO-3-TRIFLUOROMETHYLBENZYLIDENE)-N^4-(2,6-DIMETHYLPHENYL)SEMICARBAZONE]	–	> 25 µM	> 25 µM	–	–	–
Cc1cccc(C)c1NC(=O)N/N=C/c1ccccc1F [Compound 13c, N^1-(2-FLUOROBENZYLIDENE)-N^4-(2,6-DIMETHYLPHENYL)SEMICARBAZONE]	–	8.2 µM	8.23 µM	–	–	–
Cc1ccc(/C=N/NC(=O)Nc2c(C)cccc2C)cc1F [Compound 13d, N^1-(3-FLUORO-4-METHYLBENZYLIDENE)-N^4-(2,6-DIMETHYLPHENYL)SEMICARBAZONE]	–	1.8 µM	1.81 µM	–	–	–
Cc1cccc(C)c1NC(=O)N/N=C/c1ccc(F)cc1 [Compound 13e, N^1-(4-FLUOROBENZYLIDENE)-N^4-(2,6-DIMETHYLPHENYL)SEMICARBAZONE]	–	7 µM	7 µM	7 µM	–	–
Cc1cccc(C)c1NC(=O)N/N=C/c1ccc(F)cc1F [Compound 13f, N^1-(2,4-DIFLUOROBENZYLIDENE)-N^4-(2,6-DIMETHYLPHENYL)SEMICARBAZONE]	–	2.1 µM	2.14 µM	2.1 µM	–	–
COc1cccc(/C=N/NC(=O)Nc2c(C)cccc2C)c1OC [Compound 13g, N^1-(2,3-DIMETHOXYBENZYLIDENE)-N^4-(2,6-DIMETHYLPHENYL)SEMICARBAZONE]	–	> 25 µM	> 25 µM	–	–	–
COc1cc(OC)c(/C=N/NC(=O)Nc2c(C)cccc2C)c(OC)c1 [Compound 13h, N^1-(2,4,6-TRIMETHOXYBENZYLIDENE)-N^4-(2,6-DIMETHYLPHENYL)SEMICARBAZONE]	–	> 25 µM	> 25 µM	–	–	–
Cc1ccccc1/C=N/NC(=O)Nc1c(C)cccc1C [Compound 13i, N^1-(2-METHYLBENZYLIDENE)-N^4-(2,6-DIMETHYLPHENYL)SEMICARBAZONE]	–	> 25 µM	> 25 µM	–	–	–
Cc1cccc(/C=N/NC(=O)Nc2c(C)cccc2C)c1 [Compound 13j, N^1-(3-METHYLBENZYLIDENE)-N^4-(2,6-DIMETHYLPHENYL)SEMICARBAZONE]	–	13.4 µM	13.4 µM	–	–	–
Cc1ccc(/C=N/NC(=O)Nc2c(C)cccc2C)cc1 [Compound 13k, N^1-(4-METHYLBENZYLIDENE)-N^4-(2,6-DIMETHYLPHENYL)SEMICARBAZONE]	–	2.9 µM	2.9 µM	–	–	–

Structure (SMILES)	protection of cells from LT (in words)	IC50 (Mus musculus, RAW264.7)	IC50 [1]	IC50 [2]	fold less active than 1	IC50
CCc1ccc(/C=N/NC(=O)Nc2c(C)cccc2C)cc1 [Compound 13l, N^1-(4-ETHYLBENZYLIDENE)-N^4-(2,6-DIMETHYLPHENYL)SEMICARBAZONE]	–	3 µM	3.02 µM	–	–	–
Cc1cccc(C)c1NC(=O)N/N=C/c1ccc(C(C)C)cc1 [Compound 13m, N^1-(4-I-PROPYLBENZYLIDENE)-N^4-(2,6-DIMETHYLPHENYL)SEMICARBAZONE]	–	6.5 µM	6.48 µM	–	–	–
COc1ccc(/C=N/NC(=O)Nc2c(C)cccc2C)cc1 [Compound 13n, N^1-(4-METHOXYBENZYLIDENE)-N^4-(2,6-DIMETHYLPHENYL)SEMICARBAZONE]	–	> 12.5 µM	> 12.5 µM	–	–	–
C#Cc1ccc(/C=N/NC(=O)Nc2c(C)cccc2C)cc1 [Compound 13o, N^1-(4-ETHYNYLBENZYLIDENE)-N^4-(2,6-DIMETHYLPHENYL)SEMICARBAZONE]	–	1.7 µM	1.69 µM	–	–	–
Cc1cccc(C)c1NC(=O)N/N=C/c1ccc(NS(C)(=O)=O)cc1 [Compound 13p, N^1-(4-(N-(4-FORMYLPHENYL)METHANESULFONAMIDE)BENZYLIDENE-N^4-(2,6-DIMETHYLPHENYL)SEMICARBAZONE]	–	> 25 µM	> 25 µM	–	–	–
Cc1cccc(C)c1NC(=O)N/N=C/c1ccc(I)cc1 [Compound 13q, N^1-(4-IODOBENZYLIDENE)-N^4-(2,6-DIMETHYLPHENYL)SEMICARBAZONE]	–	1.77 µM	1.77 µM	–	–	1.8 ± 0.3 µM
Cc1cccc(C)c1NC(=O)N/N=C/c1ccc(C(F)(F)F)cc1 [Compound 13r, N^1-(4-TRIFLUOROMETHYLBENZYLIDENE)-N^4-(2,6-DIMETHYLPHENYL)SEMICARBAZONE]	–	2.6 ± 0.5 µM	2.59 µM	–	–	–
Cc1cccc(C)c1NC(=O)N/N=C/c1ccc(C#N)cc1 [Compound 13s, N^1-(4-CYANOMETHYLBENZYLIDENE)-N^4-(2,6-DIMETHYLPHENYL)SEMICARBAZONE]	–	2.45 µM	2.45 µM	–	–	2.5 ± 0.3 µM
Cc1cccc(C)c1NC(=O)N/N=C/c1ccncc1 [Compound 13t, N^1-(PYRIDIN-4-YLMETHYLENE)-N^4-(2,6-DIMETHYLPHENYL)SEMICARBAZONE]	–	> 25 µM	–	–	–	–
Cc1cccc(C)c1NC(=O)N/N=C/c1ccco1 [Compound 13u, N^1-(FURAN-2-YLMETHYLENE)-N^4-(2,6-DIMETHYLPHENYL)SEMICARBAZONE]	–	> 25 µM	–	–	–	–
Cc1cccc(C)c1NC(=O)N/N=C/c1ccc(Br)o1 [Compound 13v, N^1-(5-BROMOFURAN-2-YLMETHYLENE)-N^4-(2,6-DIMETHYLPHENYL)SEMICARBAZONE]	–	> 25 µM	–	–	–	> 25 µM
Cc1cccc(C)c1NC(=O)N/N=C/c1cccs1 [Compound 13w, N^1-(THIOPHENE-2-YLMETHYLENE)-N^4-(2,6-DIMETHYLPHENYL)SEMICARBAZONE]	–	> 25 µM	–	–	–	> 25 µM
Cc1cccc(C)c1NC(=O)N/N=C/c1ccc(Br)s1 [Compound 13x, N^1-(5-BROMOTHIOPHENE-2-YLMETHYLENE)-N^4-(2,6-DIMETHYLPHENYL)SEMICARBAZONE]	–	1.67 µM	–	1.7 µM	–	–
Cc1cccc(C)c1NC(=O)N/N=C/c1c(F)cc(Br)cc1F [Compound 13y, N^1-(4-BROMO-2,6-DIFLUOROBENZYLIDENE)-N^4-(2,6-DIMETHYLPHENYL)SEMICARBAZONE]	–	3.9 µM	3.95 µM	–	–	4 ± 0.8 µM
Cc1cccc(C)c1NC(=O)N/N=C/c1ccc(Br)cc1Cl [Compound 13z, N^1-(4-BROMO-2-CHLOROBENZYLIDENE)-N^4-(2,6-DIMETHYLPHENYL)SEMICARBAZONE]	–	3.2 µM	3.24 µM	–	–	–
Cc1cccc(C)c1NC(=O)NNCc1ccc(Br)cc1 [Compound 14, 2-(4-BROMOBENZYL)-N-(2,6-DIMETHYLPHENYL)HYDRAZINECARBOXAMIDE]	not protective	> 25 µM	> 25 µM	–	–	–
C/C(=N\NC(=O)Nc1c(C)cccc1C)c1ccc(Br)cc1 [Compound 15, N^1-(4-BROMOPHENYLETHYLIDENE)-N^4-(2,6-DIMETHYLPHENYL)SEMICARBAZONE]	–	2.5 µM	2.5 µM	2.5 µM	–	–
Cc1cccc(C)c1NC(=O)N(C)/N=C/c1ccc(Br)cc1 [Compound 16, N^1-2-(4-BROMOBENZYLIDENE)-N^4-(2,6-DIMETHYLPHENYL)1-METHYLHYDRAZINECARBOXAMIDE]	–	1.96 µM	1.96 µM	2 µM	–	–
C#CCN(/N=C/c1ccc(Br)cc1)C(=O)Nc1c(C)cccc1C [Compound 17, 2-(4-BROMOBENZYLIDENE)-N-(2,6-DIMETHYLPHENYL)-1-(PROP-2-YN-1-YL)HYDRAZINECARBOXAMIDE]	–	> 12.5 µM	–	> 12.5 µM	–	–
Cc1cccc(C)c1NC(=S)N/N=C/c1ccc(Br)cc1 [Compound 19a, N^1-(4-BROMOBENZYLIDENE)-N^4-(2,6-DIMETHYLPHENYL)THIOSEMICARBAZONE]	–	1.52 µM	1.52 µM	1.5 µM	–	–
Cc1cccc(C)c1/N=C(\N)N/N=C/c1ccc(Br)cc1 [Compound 22, 2-(4-BROMOBENZYLIDENE)-N′-(2,6-DIMETHYLPHENYL)HYDRAZINECARBOXIMIDAMIDE]	–	–	–	13.8 µM	–	–
